This assay deals with acetylcholine-induced bronchospasm. The experiment in a line: Inhibition of acetylcholine-induced bronchospasm in the anaesthetised dog after administration by inhalation. The note with it: aerosol, FIG. 1; for peak inhibition of acetylcholine-induced bronchospasm: 5 μg L-(-)-enantiomer (curve B) or 10 μg racemate (curve A); for time at which peak inhibition of bronchospasm is reached / time until inhibition of bronchospasm has fallen back to initial/starting level: 5 μg L-(-)-enantiomer or 10 μg racemate.

Structures are written as SMILES.

Experimental: 5 μg of the pure L-(-)-enantiomer and, accordingly, 10 μg of the racemate were administered.

On to `CC(C)[N+]1(C)C2CCC1CC(OC(=O)C(CO)c1ccccc1)C2` (single isomer, unassigned) [BIIH 150 BR, (endo, syn)-(-)-3-(3-hydroxy-l-oxo-2-phenylpropoxy)-8-methyl-8-(1-methylethyl)-8-azoniabicyclo [3,2,1]octane], for which the “peak inhibition of acetylcholine-induced bronchospasm” value is on record as 60%, the “time at which peak inhibition of bronchospasm is reached” value was “about 10 minutes” and the “time until inhibition of bronchospasm has fallen back to initial/starting level” value worked out at 180 min.

As for `CC(C)[N+]1(C)C2CCC1CC(OC(=O)C(CO)c1ccccc1)C2` (stereo not drawn) [Ipratropium bromide], the “peak inhibition of acetylcholine-induced bronchospasm” value is listed as “about 55%”, the “time at which peak inhibition of bronchospasm is reached” value is “about 10 minutes” and the “time until inhibition of bronchospasm has fallen back to initial/starting level” value worked out at 60 min.

These data come from patent US6299861A, “Ipratropium bromide enantiomer with prolonged duration of effect” (Boehringer Ingelheim KG, priority 1995, dated 2001).
